Assay results as given in publication PMC4537067 (ACS infectious diseases, 2015).
pIC50: −log10 of the molar value. Structures can show the parent of a compound that is named as a salt. Where two headings read alike, the source gives them in different places.

Key:
EBOV minigenome activity [1] = test: microbe, parasite or virus in culture; format: cell-based, Ebola virus
EBOV minigenome activity [2] = test system: EBOV minigenome activity
EBOV minigenome activity [3] = test: cells; conditions: Zaire ebolavirus, HEK-293T, 24 h
in vitro = conditions: human
EBOV-GFP = format: cell-based, Ebola virus
EBOV minigenome activity [4] = format: cell-based, Ebola virus

`O=c1cnn([C@@H]2O[C@H](CO)[C@@H](O)[C@H]2O)c(=O)[nH]1` [6-Azauridine] showed an inhibition at 7 µM (EBOV minigenome activity [1]; Zaire ebolavirus, 24 h, read-out: inhibition of minigenome activity (positive control)) of ~70%.
With `CO[C@H]1C=C[C@@]23c4cc5c(cc4CN(C[C@@H]2O)[C@H]3C1)OCO5` [crinamine] the CC50 (HEK293T cells) was > 50000 nM, the “% inhibition in screen” value (EBOV minigenome activity [1]) was 91.5% and the pIC50 (EBOV minigenome activity [2]) was 5.42. The “SI (CC50/IC50)” value (EBOV minigenome activity [2]) was >13.196.
For `C[C@@]12C(=O)OC(=O)[C@]1(C)[C@H]1CC[C@@H]2O1` [cantharidin], the pIC50 (EBOV minigenome activity [3]) was 4.95, the CC50 (in vitro) was > 50000 nM and the “% inhibition in screen” value (EBOV minigenome activity [1]) was 87.3%. For the same molecule, the pIC50 (EBOV minigenome activity [2]) was 4.95 and the “SI (CC50/IC50)” value (EBOV minigenome activity [2]) was >4.415.
In the case of `CC(=O)O[C@H]1C[C@H](O[C@H]2[C@@H](O)C[C@H](O[C@H]3[C@@H](O)C[C@H](O[C@H]4CC[C@@]5(C)[C@H](CC[C@@H]6[C@@H]5C[C@@H](O)[C@]5(C)[C@@H](C7=CC(=O)OC7)CC[C@]65O)C4)O[C@@H]3C)O[C@@H]2C)O[C@H](C)[C@H]1O[C@@H]1O[C@H](CO)[C@@H](O)[C@H](O)[C@H]1O` [lanatoside C], the pIC50 (EBOV minigenome activity [3]) was 6.59, the CC50 (in vitro) was 177 nM and the “% inhibition in screen” value (EBOV minigenome activity [1]) was 100.0%. The “SI (CC50/IC50)” value (EBOV minigenome activity [2]) was 0.694.
In the case of `C[C@]12CC[C@H]3[C@@H](CC[C@]4(O)C[C@@H](O)CC[C@]34C=O)[C@@]1(O)CC[C@@H]2C1=CC(=O)OC1` [strophanthidin], the pIC50 (EBOV minigenome activity [3]) was 5.94, the CC50 (in vitro) was 491 nM and the “% inhibition in screen” value (EBOV minigenome activity [1]) was 100.0%. The “SI (CC50/IC50)” value (EBOV minigenome activity [2]) was 0.423.
With `Cc1ccc(C)c(OCCCC(C)(C)C(=O)O)c1` [gemfobrozil] the CC50 (HEK293T cells) was > 50000 nM, the “% inhibition in screen” value (EBOV minigenome activity [1]) was 62.1% and the pIC50 (EBOV minigenome activity [2]) was < 4.30.
In the case of `CC(=O)O[C@@H]1C[C@H]2C(C)(C)C(=O)C=C[C@]2(C)[C@H]2CC[C@@]3(C)[C@H](c4ccoc4)OC(=O)[C@H]4O[C@]43[C@@]21C` [gedunin], the pIC50 (EBOV minigenome activity [3]) was 6.10, the CC50 (in vitro) was 5480 nM and the “% inhibition in screen” value (EBOV minigenome activity [1]) was 72.9%. The “SI (CC50/IC50)” value (EBOV minigenome activity [2]) was 6.829, the “reduction of virus replication (EBOV-GFP)” value (EBOV-GFP) was 98% and the “cell death (cytotoxicity)” value (Vero E6 cells) was “little cell death”.
With `COc1c(C)c2c(c(O)c1C/C=C(\C)CCC(=O)O)C(=O)OC2` [mycophenolic acid] the “effect of guanosine addition on inhibition of minigenome activity” value (EBOV minigenome activity [4]) was “rescued minigenome activity at all concentrations”, the pIC50 (EBOV minigenome activity [3]) was 6.50 and the CC50 (in vitro) was > 50000 nM. The “% inhibition in screen” value (EBOV minigenome activity [1]) was 90.5%, the “reduction of virus replication (EBOV-GFP)” value (EBOV-GFP) was 96% and the “cell death (cytotoxicity)” value (Vero E6 cells) was “little cell death”.
With `CC(=O)Oc1c2c(c(CC=C(C)C)c3c1C(=O)C1=C[C@@H]4CC5C(C)(C)OC(C/C=C(\C)C(=O)O)(C4=O)[C@@]15O3)OC(C)(CCC=C(C)C)C=C2` (stereo partly drawn) [acetyl isogambogic acid] the pIC50 (EBOV minigenome activity [3]) was 5.53, the CC50 (in vitro) was 2880 nM and the “% inhibition in screen” value (EBOV minigenome activity [1]) was 99.0%. The “SI (CC50/IC50)” value (EBOV minigenome activity [2]) was 0.983.
For `CC1=CC(=O)c2c(O)cccc2C1=O` [plumbagin], the pIC50 (EBOV minigenome activity [3]) was 6.04, the CC50 (in vitro) was 756 nM and the “% inhibition in screen” value (EBOV minigenome activity [1]) was 98.3%. The “SI (CC50/IC50)” value (EBOV minigenome activity [2]) was 0.823.
In the case of `CN(Cc1cnc2nc(N)nc(N)c2n1)c1ccc(C(=O)N[C@@H](CCC(=O)O)C(=O)O)cc1` [methotrexate], the pIC50 (EBOV minigenome activity [3]) was < 4.30, the CC50 (in vitro) was > 50000 nM and the “% inhibition in screen” value (EBOV minigenome activity [1]) was 67.1%.
With `COc1ccc(C[C@H](N)C(=O)N[C@H]2[C@@H](O)[C@H](n3cnc4c(N(C)C)ncnc43)O[C@@H]2CO)cc1` [puromycin hydrochloride] the pIC50 (EBOV minigenome activity [3]) was 6.05, the CC50 (in vitro) was 3590 nM and the “% inhibition in screen” value (EBOV minigenome activity [1]) was 99.7%. For the same molecule, the “SI (CC50/IC50)” value (EBOV minigenome activity [2]) was 4.043.
For `C[C@H]1O[C@@H](O[C@H]2[C@@H](O)C[C@H](O[C@H]3[C@@H](O)C[C@H](O[C@H]4CC[C@@]5(C)[C@H](CC[C@@H]6[C@@H]5CC[C@]5(C)[C@@H](C7=CC(=O)OC7)CC[C@]65O)C4)O[C@@H]3C)O[C@@H]2C)C[C@H](O)[C@@H]1O` [digitoxin], the pIC50 (EBOV minigenome activity [3]) was 7.30, the CC50 (in vitro) was 31 nM and the “% inhibition in screen” value (EBOV minigenome activity [1]) was 92.5%. The “SI (CC50/IC50)” value (EBOV minigenome activity [2]) was 0.62.
In the case of `CC(C)=CCC[C@]1(C)C=Cc2c(O)c3c(c(CC=C(C)C)c2O1)O[C@]12C(=C[C@@H]4CC1C(C)(C)O[C@@]2(C/C=C(/C)C(N)=O)C4=O)C3=O` [gambogic amide], the pIC50 (EBOV minigenome activity [3]) was 6.00, the CC50 (in vitro) was 454 nM and the “% inhibition in screen” value (EBOV minigenome activity [1]) was 100.0%. The “SI (CC50/IC50)” value (EBOV minigenome activity [2]) was 0.45.
For `Nc1ncn([C@@H]2O[C@H](CO)[C@@H](O)[C@H]2O)c(=O)n1` [azacitidine], the pIC50 (EBOV minigenome activity [3]) was 5.40, the CC50 (in vitro) was > 50000 nM and the “% inhibition in screen” value (EBOV minigenome activity [1]) was 76.9%. For the same molecule, the “SI (CC50/IC50)” value (EBOV minigenome activity [2]) was >12.466.
With `CC[C@H]1CN2CCc3cc(OC)c(OC)cc3[C@@H]2C[C@@H]1C[C@H]1NCCc2cc(OC)c(OC)cc21` [emetine] the pIC50 (EBOV minigenome activity [3]) was 5.83, the CC50 (in vitro) was > 50000 nM and the “% inhibition in screen” value (EBOV minigenome activity [1]) was 98.3%. For the same molecule, the “reduction of EBOV replication (EBOV-GFP)” value (EBOV-GFP) was 99% and the cytotoxicity (Vero E6 cells) was “cytotoxic at higher concentrations”.
For `C[C@@H]1C[C@@H]([C@H](O)CC2CC(=O)NC(=O)C2)C(=O)[C@@H](C)C1` [cycloheximide], the pIC50 (EBOV minigenome activity [3]) was 6.22, the CC50 (in vitro) was > 50000 nM and the “% inhibition in screen” value (EBOV minigenome activity [1]) was 97.9%. For the same molecule, the “reduction of EBOV replication (EBOV-GFP)” value (EBOV-GFP) was 96% and the cytotoxicity (Vero E6 cells) was “cytotoxic at higher concentrations”.
With `O=c1[nH]cc(F)c(=O)[nH]1` [fluorouracil] the pIC50 (EBOV minigenome activity [3]) was < 4.30 and the CC50 (in vitro) was > 50000 nM.
In the case of `Nc1ncnc2c1ncn2[C@@H]1O[C@H](CO)[C@@H](O)[C@@H]1O` [vidarabine], the pIC50 (EBOV minigenome activity [3]) was < 4.30, the CC50 (in vitro) was > 50000 nM and the “% inhibition in screen” value (EBOV minigenome activity [1]) was 56.1%.
For `CN(C)CCOC(c1ccccc1)c1ccccc1.Cn1c(=O)c2[nH]c(Cl)nc2n(C)c1=O` [dramamine], the CC50 (HEK293T cells) was > 50000 nM, the “% inhibition in screen” value (EBOV minigenome activity [1]) was 57.8% and the pIC50 (EBOV minigenome activity [2]) was < 4.30.
